The structures appear in SMILES notation. pEC50: −log10 of the molar value.

One assay deals with ring stage parasites. Briefly: Parasite growth potency assay, 72 hours, LDH readout. It is filed as cell-based. Conditions: 72 h, parasite growth measured by LDH assay after 72 hours at 37° C.; 0.7% rings, 2% haematocrit; read-out: EC50. Here is the method: The parasite stock was maintained at 4% haematocrit in RPMI-Hepes media buffered with sodium bicarbonate and supplemented with 5% heat inactivated human serum and 0.5% albumax.
On the day of assay set up, a blood smear of the parasite culture was Giemsa stained and counted. The parasitemia was adjusted to 0.7% rings and the haematocrit was diluted to 2% in RPMI-Hepes media buffered with sodium bicarbonate and supplemented with 5% heat inactivated human serum and 0.5% albumax. 30 ul of diluted parasites are then added into 10 ul of media+compound in pre-prepared Greiner TC assay plates. Parasite assay plates were placed in gassed humidified boxes in single layer and allowed to incubate at 37° C. for 72 hours. After 72 hours growth, assay plates are sealed with parafilm and frozen flat, in single file at −80° C. overnight. On the following day, assay plates are allowed to thaw at room temperature for 4 hours to which an LDH assay is performed to measure parasite growth.
In the case of `COCC[C@H](c1cc(F)cc(C(=O)N[C@@H]2c3ccccc3C[C@H]2O)c1)N1C(=N)NC(C)(C)CC1=O` [Example 169, [1-[1-[3-fluoro-5-[[(1R,2R)-2-hydroxyindan-1-yl]carbamoyl]phenyl]-3-methoxy-propyl]-4,4-dimethyl-6-oxo-hexahydropyrimidin-2-ylidene]ammonium; 2,2,2-trifluoroacetate], the pEC50 was 8.33.
Regarding `CC(C)[C@]1(C)CC(=O)N(Cc2cc(F)cc(C(=O)N[C@H]3CCOc4ccccc43)c2)C(=N)N1` [Example 29, [(4S)-1-[[3-[[(4S)-chroman-4-yl]carbamoyl]-5-fluoro-phenyl]methyl]-4-isopropyl-4-methyl-6-oxo-hexahydropyrimidin-2-ylidene]ammonium; 2,2,2-trifluoroacetate], the pEC50 was 8.11.
The same measure, in the same setting: for `COCC[C@H](c1cccc(C(=O)N[C@@H]2c3ccccc3CC2(O)C(F)(F)F)c1)N1C(=N)NC(C)(C)CC1=O` (stereo partly drawn) [Example 188, [1-[(1R)-1-[3-[[2-hydroxy-2-(trifluoromethyl)indan-1-yl]carbamoyl]phenyl]-3-methoxy-propyl]-4,4-dimethyl-6-oxo-hexahydropyrimidin-2-ylidene]ammonium; 2,2,2-trifluoroacetate] the value was 8.14; for `CCC1(CC)CC(=O)N([C@H](c2ccccc2)c2cccc(C(=O)N[C@@H]3c4ccccc4C[C@H]3O)c2)C(=N)N1` [Example 16, [4,4-diethyl-1-[[3-[[(1R,2R)-2-hydroxyindan-1-yl]carbamoyl]phenyl]-phenyl-methyl]-6-oxo-hexahydropyrimidin-2-ylidene]ammonium; 2,2,2-trifluoroacetate], 9.52; for `CCC1(CC)CC(=O)N([C@H](Cc2ccccc2)c2cccc(C(=O)N[C@H]3CCOc4ccccc43)c2)C(=N)N1` [Example 40, [1-[1-[3-[[(4S)-chroman-4-yl]carbamoyl]phenyl]-2-phenyl-ethyl]-4,4-diethyl-6-oxo-hexahydropyrimidin-2-ylidene]ammonium; 2,2,2-trifluoroacetate], 8.01.
Regarding `CC[C@H](c1cccc(C(=O)N[C@@H]2c3ccccc3C[C@H]2O)c1)N1C(=N)NC(CC)(CC)CC1=O` [Example 208, [4,4-diethyl-1-[1-[3-[[(1R,2R)-2-hydroxyindan-1-yl]carbamoyl]phenyl]propyl]-6-oxo-hexahydropyrimidin-2-ylidene]ammonium; 2,2,2-trifluoroacetate], the pEC50 was 9.15.
As for `CCC[C@H](c1cccc(C(=O)N[C@@H]2c3ccccc3OCC2O)c1)N1C(=N)NC(CC)(CC)CC1=O` (stereo partly drawn) [Example 127D, 3-[(1R)-1-(4,4-diethyl-2-imino-6-oxo-hexahydropyrimidin-1-yl)butyl]-N-(3-hydroxychroman-4-yl)benzamide], the pEC50 was 8.92.
With `CCC1(CC)CC(=O)N([C@H](CCOC)c2cccc(C(=O)NC3c4ccccc4CC3(C)O)c2)C(=N)N1` (stereo in doubt) [Example 142A, 3-[1-(4,4-diethyl-2-imino-6-oxo-hexahydropyrimidin-1-yl)-3-methoxy-propyl]-N-(2-hydroxy-2-methyl-indan-1-yl)benzamide], the pEC50 was 8.68.
For `COCC[C@H](c1cc(F)cc(C(=O)N[C@@H]2c3ccccc3OC(C)(C)[C@H]2O)c1)N1C(=N)NC(C)(C)CC1=O` [Example 174, [1-[1-[3-fluoro-5-[[(3S,4R)-3-hydroxy-2,2-dimethyl-chroman-4-yl]carbamoyl]phenyl]-3-methoxy-propyl]-4,4-dimethyl-6-oxo-hexahydropyrimidin-2-ylidene]ammonium; 2,2,2-trifluoroacetate], the pEC50 is 9.05.
For the compound `CCC1(C)CC(=O)N([C@H](CCOC)c2cccc(C(=O)N[C@@H]3c4ccccc4C4(CC4)[C@H]3O)c2)C(=N)N1` (stereo partly drawn) [Example 168, [4-ethyl-1-[(1R)-1-[3-[(2′-hydroxyspiro[cyclopropane-1,3′-indane]-1′-yl)carbamoyl]phenyl]-3-methoxy-propyl]-4-methyl-6-oxo-hexahydropyrimidin-2-ylidene]ammonium; 2,2,2-trifluoroacetate], the pEC50 is 8.85.
Take `C[C@H](c1cccc(C(=O)N[C@H]2CCOc3ccccc32)c1)N1C(=N)N[C@@](CC2CC2)(c2ccccc2)CC1=O` [Example 7, [(4R)-1-[1-[3-[[(4S)-chroman-4-yl]carbamoyl]phenyl]ethyl]-4-(cyclopropylmethyl)-6-oxo-4-phenyl-hexahydropyrimidin-2-ylidene]ammonium; 2,2,2-trifluoroacetate]: the pEC50 was 7.41.
Turning to `CCC1(CC)CC(=O)N(C(CCOC)c2ccc(C(F)(F)F)c(C(=O)N[C@@H]3c4ccccc4C[C@]3(C)O)c2)C(=N)N1` (stereo partly drawn) [Example 242, 5-[1-(4,4-diethyl-2-imino-6-oxo-hexahydropyrimidin-1-yl)-3-methoxy-propyl]-N-[(1R,2S)-2-hydroxy-2-methyl-indan-1-yl]-2-(trifluoromethyl)benzamide], the pEC50 is 8.64.
`CCC1(CC)CC(=O)N([C@H](CCS(C)(=O)=O)c2cccc(C(=O)N[C@@H]3c4ccccc4OC(C)(C)[C@H]3O)c2)C(=N)N1` [Example 155, [4,4-diethyl-1-[1-[3-[[(3S,4R)-3-hydroxy-2,2-dimethyl-chroman-4-yl]carbamoyl]phenyl]-3-methylsulfonyl-propyl]-6-oxo-hexahydropyrimidin-2-ylidene]ammonium; 2,2,2-trifluoroacetate]: the pEC50 was 7.76.
On the same count and under the same terms, for `CCC1(CC)CC(=O)N(Cc2cccc(C(=O)N[C@@H]3c4cc(F)ccc4C[C@H]3O)c2)C(=N)N1` (stereo in doubt) [Example 199, [4,4-diethyl-1-[[3-[(6-fluoro-2-hydroxy-indan-1-yl)carbamoyl]phenyl]methyl]-6-oxo-hexahydropyrimidin-2-ylidene]ammonium; 2,2,2-trifluoroacetate] the value was 8.21.
Turning to `CCC1(CC)CC(=O)N([C@H](CCN2CCOCC2)c2cccc(C(=O)N[C@H]3CCOc4ccccc43)c2)C(=N)N1` [Example 54, [1-[1-[3-[[(4S)-chroman-4-yl]carbamoyl]phenyl]-3-morpholin-4-ium-4-yl-propyl]-4,4-diethyl-6-oxo-hexahydropyrimidin-2-ylidene]ammonium; 2,2,2-trifluoroacetate], the pEC50 is 8.25.
Still for that read-out and setting: for `CCC1(CC)CC(=O)N([C@H](CCOC)c2cccc(C(=O)N[C@@H]3c4ccccc4OCC3(C)O)c2)C(=N)N1` (stereo in doubt) [Example 143A, 3-[1-(4,4-diethyl-2-imino-6-oxo-hexahydropyrimidin-1-yl)-3-methoxy-propyl]-N-(3-hydroxy-3-methyl-chroman-4-yl)benzamide] the value was 8.66.

Still in this assay, the particulars now being: parasite growth measured by LDH assay after 72 hours at 37° C.; 0.7% rings, 2% haematocrit; read-out: EC50.
As to `CCC1(CC)CC(=O)N(C(CC(O)C(F)(F)F)c2cccc(C(=O)N[C@@H]3c4ccccc4C[C@H]3O)c2)C(=N)N1` (single isomer, unassigned) [Example 236C], the pEC50 was 8.64.
Same read-out and setting: for `CCC1(C)CC(=O)N([C@H](CCOC)c2cccc(C(=O)N[C@@H]3c4ccccc4CC3(C)O)c2)C(=N)N1` (stereo partly drawn) [Example 196A, 3-[(1R)-1-(4-ethyl-2-imino-4-methyl-6-oxo-hexahydropyrimidin-1-yl)-3-methoxy-propyl]-N-[(1R,2S)-2-hydroxy-2-methyl-indan-1-yl]benzamide] the value was 8.19; for `CC[C@]1(C)CC(=O)N([C@H](CCOC)c2cccc(C(=O)NC3c4cc(F)ccc4OC(C)(C)C3(C)O)c2)C(=N)N1` (single isomer, unassigned) [Example 237A], 7.26.
On to `CCC[C@H](c1cccc(C(=O)N[C@H]2c3ccccc3OCC2O)c1)N1C(=N)NC(CC)(CC)CC1=O` (stereo partly drawn) [Example 127C, 3-[(1R)-1-(4,4-diethyl-2-imino-6-oxo-hexahydropyrimidin-1-yl)butyl]-N-(3-hydroxychroman-4-yl)benzamide], for which the pEC50 is 7.27.
On the same count and under the same terms, as for `CCC12CCCCCCC3COc4ccccc4C3NC(=O)c3cccc(c3)CN(C(=N)N1)C(=O)C2` (single isomer, unassigned) [Example 120C, (26-ethyl-8,29-dioxo-17-oxa-1,9,27-triazapentacyclo[24.2.2.13,7.010,19. 011,16]hentriaconta-3,5,7(31),11(16),12,14-hexaen-28-ylidene)ammonium; 2,2,2-trifluoroacetate], the figure is 7.66; as for `CCC12CCCCCCC3COc4ccccc4C3NC(=O)c3cccc(c3)CN(C(=N)N1)C(=O)C2` (single isomer, unassigned) [Example 120D, (26-ethyl-8,29-dioxo-17-oxa-1,9,27-triazapentacyclo[24.2.2.13,7.010,19. 011,16]hentriaconta-3,5,7(31),11(16),12,14-hexaen-28-ylidene)ammonium; 2,2,2-trifluoroacetate], 7.56.

The same assay, now with this note: parasite growth measured by LDH assay after 72 hours at 37° C.; 0.7% rings, 2% haematocrit; trifluoroacetate; read-out: EC50.
With `C#CCCCC(c1cccc(C(=O)NC2CCOc3ccccc32)c1)N1C(=N)NC(CC)(CC)CC1=O` [Example 210C, [1-[1-[3-[[(4S)-chroman-4-yl]carbamoyl]phenyl]hex-5-ynyl]-4,4-diethyl-6-oxo-hexahydropyrimidin-2-ylidene]ammonium; 2,2,2-trifluoroacetate], the pEC50 was 8.16.
For `CC[C@H](c1cccc(C(=O)N[C@@H]2c3ccccc3OC[C@]2(C)O)c1)N1C(=N)NC(CC)(CC)CC1=O` [Example 206B, [4,4-diethyl-1-[1-[3-[[(3R,4R)-3-hydroxy-3-methyl-chroman-4-yl]carbamoyl]phenyl]propyl]-6-oxo-hexahydropyrimidin-2-ylidene]ammonium; 2,2,2-trifluoroacetate], the pEC50 is 9.15.

A word on the pEC50: it is the negative decadic logarithm of the EC50, by convention in mol/L.

The record behind these values is patent publication US12629374B2, “Antimalarial agents” (Merck Sharp & Dohme LLC, priority 2020, dated 2026).
